Data from article PMC9289467, “A Novel Multifunctional 5,6-Dimethoxy-Indanone-Chalcone-Carbamate Hybrids Alleviates Cognitive Decline in Alzheimer’s Disease by Dual Inhibition of Acetylcholinesterase and Inflammation” (Frontiers in Aging Neuroscience, 2022).

Columns and labels:
AChE = biological target: T1, AChE (Mus musculus, UniProt P21836); experiment: Brain AChE activity, Amplex Red kit, APP/PS1 mice; type: in vivo; settings: AP5 40 mg/kg intragastric once daily 5 months, vs APP/PS1 mice
T1 construct: The brain samples were weighed, homogenized in PBS solution, and centrifuged; from tissue; host or cells: mouse brain (cortex and hippocampus) of APP/PS1 mice dosed with AP5
Experimental: (§1) APP/PS1 mice of ages 6 months were randomly divided into vehicle (APP/PS1, n = 10) and treatment groups (AP5, n = 10), which were intragastrically administered with AP5 (40 mg/kg) once daily for consecutive 5 months. AP5 was dissolved in distilled water containing 1% sodium carboxymethyl cellulose.
The brain samples were weighed, homogenized in PBS solution, and centrifuged for 20 min at 25,000 g at 4°C. Amplex® Red acetylcholinesterase/acetylcholine assay kit (A12217, Thermo Fisher Scientific) was used to detect AChE activity and ACh levels in the supernatant in accordance with the manufacturer’s instructions.
(§2) Briefly, for ACh assay, the reactions were started by adding 100 µL of the Amplex Red reagent, HRP, choline oxidase, AChE working solution to each microplate well containing the controls and samples. For AChE assay, detection cocktail solution containing ACh, Amplex Red, choline oxidase and horseradish peroxidase was added toeach well. Assay plates were incubated at room temperature for 30 min and protected from light, followed by detecting fluorescence of resorufin (λex = 544 nm, λem = 590 nm) in a fluorescence microplate reader.
After deparaffinization and antigen retrieval, the sections were incubated with 0.3% hydrogen peroxide (H2O2) to inhibit endogenous peroxidase activity for 20 min and blocked by goat serum for 30 min at37°C. […]

Aβ40 and Aβ42 = type: in vivo, APP/PS1 mice; settings: cortex and hippocampus; AP5 40 mg/kg once daily 5 months
Experimental: as §1
For detecting the pathological soluble or insoluble Aβ in mice, sequential extractions were performed as follows: the half of right hippocampus and cortex from three groups were homogenized in TBS solution containing 5 mM EDTA, phosphatase inhibitor (P1050, Beyotime, Shanghai, China), and protease inhibitor cocktail (P1010, Beyotime) followed by centrifugation at 25,000g at 4°C for 1 h. The supernatant was collected as a TBS fraction and the resulting pellet was solubilized in 70% formic acid (FA), sonicated until the lysis buffer was clear, followed by centrifugation at 25,000g at 4°C for 1 h. The supernatant was collected as the FA fraction and neutralized (1:20) in a neutralization buffer (1 M tris base, 0.5 M Na2HPO4, 0.05% NaN3). Human Aβ40 and Aβ42 were determined by ELISA kits (E-EL-H0452c and E-EL-H0453c, Elabscience, Wuhan, China) in accordance with the manufacturer’s instructions. In addition, the levels of IL-1β (88-7013-88, Invitrogen), IL-6 (EK206HS-96, Multi sciences, HangZhou, China), and TNF-α (88-7324-88, Invitrogen) in TBS fraction were also determined by ELISA.

NeuN, MAP2 = experiment: NeuN and MAP2 co-immunostaining and western blot, hippocampus; type: in vivo, APP/PS1 mice
Experimental: as §1
The fixed hemibrains were paraffin-embedded and sectioned in the coronal plane. The slices were deparaffinized with xylene and rehydrated by a series of gradient alcohols. Antigen retrieval through microwave boiling was performed with 10 mM sodium citrate solution at pH 6.0. The slices were cooled down to room temperature and then rinsed in PBS solution. Then the slices were incubated in 10% goat serum blocking solution for 1 h followed by primary antibodies overnight at 4°C. The next day, the slides were labeled with biotinylated or fluorescent secondary antibodies. Slices were washed three times with PBS before being mounted. Images were captured using a SpinSR10 scanner (Olympus, Tokyo, Japan).
Frozen hippocampus and cortex were homogenized in pre-cooling RIPA buffer (P0013B, Beyotime) supplemented with 1 mM phenylmethanesulfonyl fluoride (PMSF) and cocktail of protease and phosphatase inhibitors. […] The membranes were incubated with 5% fat-free milk blocking solution for 1 h at room temperature and then probed with primary antibodies overnight at 4°C. […] Densitometric analysis was performed using Quantity One software (Bio-Rad, Berkeley, CA, United States).
as §2, with “For AChE assay, detection cocktail solution containing ACh, Amplex Red, choline oxidase and horseradish peroxidase was added toeach well.” left out, “reader. […]” for “reader.”
(1:100, BAF2655, R&D, Minneapolis, MN, USA). […] For the quantification of Aβ plaque-associated microglia and […]

[1] = hippocampal CA1 pyramidal layer

T1 sequence (P21836 32-614): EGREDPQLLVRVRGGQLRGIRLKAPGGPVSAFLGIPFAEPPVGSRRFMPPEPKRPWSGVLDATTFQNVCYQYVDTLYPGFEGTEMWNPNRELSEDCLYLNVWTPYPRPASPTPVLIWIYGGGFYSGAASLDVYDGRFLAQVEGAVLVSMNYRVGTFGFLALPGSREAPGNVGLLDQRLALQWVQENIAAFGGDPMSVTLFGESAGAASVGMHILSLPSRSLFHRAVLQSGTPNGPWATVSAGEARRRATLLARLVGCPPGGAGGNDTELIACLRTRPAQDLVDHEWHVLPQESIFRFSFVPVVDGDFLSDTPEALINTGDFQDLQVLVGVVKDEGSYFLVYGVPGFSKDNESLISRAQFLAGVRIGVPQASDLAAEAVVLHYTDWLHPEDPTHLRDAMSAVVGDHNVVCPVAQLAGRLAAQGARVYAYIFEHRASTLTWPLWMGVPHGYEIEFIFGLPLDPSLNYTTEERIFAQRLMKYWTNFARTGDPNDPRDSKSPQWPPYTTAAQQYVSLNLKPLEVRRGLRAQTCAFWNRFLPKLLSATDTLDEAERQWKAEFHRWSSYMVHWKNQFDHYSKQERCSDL

CCN(C)C(=O)Oc1cccc(/C=C2\Cc3cc(OC)c(OC)cc3C2=O)c1 [AP5, (E)-3-((5,6-dimethoxy-1-oxo-1,3-dihydro-2H-inden-2-ylidene)-methyl)phenylethyl(methyl)carbamate]
AChE activity in cortex and hippocampus (AChE): decreased activity of AChE
Aβ40 and Aβ42 in TBS-fraction (Aβ40 and Aβ42): no marked differences
concentration of insoluble Aβ40 in FA-fractions (Aβ40 and Aβ42): markedly decreased
concentration of insoluble Aβ42 in FA-fractions (Aβ40 and Aβ42): markedly decreased
MAP2 signals (NeuN, MAP2; [1]): restored
average number of NeuN+ cells (NeuN, MAP2; [1]): restored
protein expression of NeuN and MAP2 (NeuN, MAP2; western blot, hippocampus): markedly increased
